{
  "source": "patent US20070065890A1",
  "about": "“Method for promoting formation of facultative heterochromatin” (priority 2005, published 2007)",
  "key": {"histone H1": {"system": "histone H1", "experiment": "In vitro deacetylation of p300-acetylated [3H]-labelled H1", "type": "biochemical", "settings": "H1 acetylated by p300-HAT with [3H]-AcCoA, incubated with different amounts of SirT1; plateau reached", "procedure": "(§1) Detection of H1 acetylation was performed by using 4 μg of histone H1 (Upstate Biotechnology, Inc., Lake Placid, N.Y.) as an acetylated substrate for SirT1 in the NER. Deacetylation was determined by first performing a deacetylation assay using 20 and 40 μg of H1 and 6 nmol of SirT1. H1 was then isolated in the supernatant of chilled 5% perchloric acid, TCA precipitated (Albig, et al. (1998) FEBS Lett. 435:245-250), and resuspended in buffer C containing 100 mM KCl. Deacetylated H1 was then used in a subsequent NER. In vitro acetylation of H1 or recombinant H1b expressed in E. coli was carried out by incubating 10 μg H1 with 2 nmol baculovirus-generated p300 in the presence of 0.875 μCi [H^3]-Ac-CoA (Amersham, Piscataway, N.J.) in HAT buffer (75 mM Tris-HCl [pH 8.8], 135 mM NaCl). Deacetylation was carried out with the specified enzyme as above using 1 μg of the labeled Hi. […] Counts were then determined by liquid scintillation (PERKINELMER, Wellesley, Mass.) . […] In vivo H1 acetylation was analyzed by treating 293 cells for 18 hours in media containing 5 mM nicotinamide. H1 was purified as described (Albig, et al. (1998) supra) and analyzed in the NER. […]\n(§2) SirT1 activity on histone H1 was directly tested in vitro. […] The same result was observed using recombinant human H1b; however, specificity was also scored in this assay using different SirT proteins."}, "recombinant human H1b": {"molecular_target": "T1, recombinant human H1b (Homo sapiens, UniProt P10412)", "T1 construct": "Human histone H1b and H1° were inserted into HA-Pet30c; HA (N); made in house; host or cells: E. coli BL21 (DE3)", "T1 sequence (P10412 2-219)": "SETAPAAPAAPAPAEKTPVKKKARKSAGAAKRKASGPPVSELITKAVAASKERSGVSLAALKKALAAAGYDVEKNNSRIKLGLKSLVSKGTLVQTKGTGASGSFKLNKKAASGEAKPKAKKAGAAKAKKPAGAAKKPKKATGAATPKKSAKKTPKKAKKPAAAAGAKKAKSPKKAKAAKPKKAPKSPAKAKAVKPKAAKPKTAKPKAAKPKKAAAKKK", "experiment": "In vitro deacetylation of p300-acetylated recombinant H1b by SirT proteins", "type": "biochemical", "settings": "equal NAD+-exchange units measured using acetylated BSA as substrate", "procedure": "as §1, §2"}},
  "data": [
    {"substance": "SirT1: Human sirtuin type 1 protein, SEQ ID NO:1; purified recombinant, baculovirus-expressed", "values": [
      {"measurement": "total label in H1 released", "setting": "histone H1", "result": "up to 70%"},
      {"measurement": "H1b deacetylation", "setting": "recombinant human H1b", "result": "H1b deacetylation is specific for SirT1"}
    ]}
  ]
}
